From publication PMC12668310, “High‐Throughput Synthesis and Screening of a Cyanimide Library Identifies Selective Inhibitors of ISG15‐Specific Protease mUSP18” (Angewandte Chemie (International Ed. in English), 2025)
Like-named read-outs stand apart in the source and are kept apart here.

Columns and labels:
mUSP18 = molecular target: T1, mUSP18 (Mus musculus, UniProt Q9WTV6); experiment: High-throughput screening, ISG15ct-RhoMP, single dose 1.25 µM; type: biochemical, murine
T1 construct: (46-368); His-tag (N); made in house
T1 sequence (Q9WTV6 46-368): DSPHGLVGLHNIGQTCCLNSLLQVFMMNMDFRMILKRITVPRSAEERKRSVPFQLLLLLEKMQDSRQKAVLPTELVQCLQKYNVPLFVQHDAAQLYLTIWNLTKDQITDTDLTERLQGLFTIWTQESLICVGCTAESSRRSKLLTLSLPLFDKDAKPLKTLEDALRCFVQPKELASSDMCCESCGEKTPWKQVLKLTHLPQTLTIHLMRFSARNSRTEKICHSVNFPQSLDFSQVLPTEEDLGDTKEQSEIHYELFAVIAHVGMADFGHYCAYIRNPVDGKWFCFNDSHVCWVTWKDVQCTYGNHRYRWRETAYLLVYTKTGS

USP16 = USP16 (Homo sapiens, UniProt Q9Y5T5); experiment: High-throughput screening, Ub-RhoMP, single dose 1.25 µM; type: biochemical; design: (22-823); His-tag (N); made in house; conditions: individual amine building block (plate NCN-5)
Description: (§1) Since the in‐plate synthesis was conducted in 1536‐well Echo plates, the compounds could readily be transferred from these plates into 1536‐well assay plates using acoustic liquid dispensing (Figure 2a) and subjected to HTS. We screened the whole 7536 compound library against a panel of twelve enzymes, including three DUBs from the UCH family, two DUBs from the OTU family, five DUBs from the USP family, plus ISG15 protease USP18, and SUMO protease SENP1. Each compound was tested at a single dose of 1.25 µM, assuming full conversion (10 mM in DMSO of the formed products) during the in‐plate synthesis, using the fluorogenic assay described above. […] The compounds are sorted by the amine building blocks (BB1‐16), and within each BB, sorted by carboxylic acid (CA1‐471), thereby providing a comprehensive and systematic overview of the overall inhibition by each BB and CA combination. Some interesting patterns can be obtained from this map. […] Indeed, BB10 is the privileged scaffold for UCHL1 as it originates from UCHL1 inhibitor 5 (Figure 1). […] On the other hand, OTUD1 and USP32 show a much higher hit rate, and this is even more pronounced for USP30 and ISG15 protease mUSP18, each showing many active compounds distributed over several BB's.
(§2) Purified recombinant enzymes used in this study
(§3) High-throughput screening
(§4) The screens were performed at room temperature in “flat bottom, non-treated, black […]
(§5) µM. The compounds (10 nL each) were transferred from the 1 mM daughter plates to the […]
(§6) Four wells containing DMSO
(§7) (10 nL) and four wells containing NEM (10 mM final concentration) were used in each plate […]
(§8) solution (1.33x final concentration) was added to each well, followed by incubation for 30 min.
(§9) Next, 2 µL of a substrate solution (4x final concentration) was added to each well (Ub-RhoMP[2]
(§10) After 1h or 2h incubation the
(§11) The percentage inhibition was calculated for each well using the […]
(§12) Where FIx is the fluorescence intensity of each well, FIpos is the average fluorescence intensity of the positive (NEM) control wells, and FIneg is the average fluorescence intensity of the negative (DMSO) control wells.

SENP1 = molecular target: T2, SENP1 (Homo sapiens, UniProt Q9P0U3); experiment: High-throughput screening, single dose 1.25 µM; type: biochemical; conditions: individual amine building block (plate NCN-5); read-out: BB %inhibition SENP1
T2 sequence (Q9P0U3 419-644): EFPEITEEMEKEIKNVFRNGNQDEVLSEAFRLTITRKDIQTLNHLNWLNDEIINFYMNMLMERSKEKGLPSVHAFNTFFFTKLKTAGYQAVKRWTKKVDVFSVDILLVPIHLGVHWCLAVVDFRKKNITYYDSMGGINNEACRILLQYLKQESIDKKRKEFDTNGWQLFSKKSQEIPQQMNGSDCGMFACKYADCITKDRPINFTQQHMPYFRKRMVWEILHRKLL
Description: as §1, §2, §3, §4, §5, §6, §7, §8, §9, §10, §11, §12

UCHL3 = molecular target: T3, UCHL3 (Homo sapiens, UniProt P15374); experiment: High-throughput screening, Ub-RhoMP, single dose 1.25 µM; type: biochemical; conditions: individual amine building block (plate NCN-5); read-out: BB %inhibition UCHL3
T3 construct: (1-230); made in house
T3 sequence (P15374 1-230): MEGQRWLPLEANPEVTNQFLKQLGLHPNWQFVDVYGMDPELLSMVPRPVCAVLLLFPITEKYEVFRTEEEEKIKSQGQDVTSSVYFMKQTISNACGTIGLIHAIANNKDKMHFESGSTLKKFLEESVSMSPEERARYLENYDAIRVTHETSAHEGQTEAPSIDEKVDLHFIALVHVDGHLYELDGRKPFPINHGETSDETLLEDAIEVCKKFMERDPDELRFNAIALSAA
Description: as §1, §2, §3, §4, §5, §6, §7, §8, §9, §10, §11, §12

USP8 = molecular target: T4, USP8 (Homo sapiens, UniProt P40818); experiment: as above; type: biochemical; conditions: individual amine building block (plate NCN-5)
T4 construct: (1-1118); purchased Ubiquigent 64-0053-050
T4 sequence (P40818 1-1118): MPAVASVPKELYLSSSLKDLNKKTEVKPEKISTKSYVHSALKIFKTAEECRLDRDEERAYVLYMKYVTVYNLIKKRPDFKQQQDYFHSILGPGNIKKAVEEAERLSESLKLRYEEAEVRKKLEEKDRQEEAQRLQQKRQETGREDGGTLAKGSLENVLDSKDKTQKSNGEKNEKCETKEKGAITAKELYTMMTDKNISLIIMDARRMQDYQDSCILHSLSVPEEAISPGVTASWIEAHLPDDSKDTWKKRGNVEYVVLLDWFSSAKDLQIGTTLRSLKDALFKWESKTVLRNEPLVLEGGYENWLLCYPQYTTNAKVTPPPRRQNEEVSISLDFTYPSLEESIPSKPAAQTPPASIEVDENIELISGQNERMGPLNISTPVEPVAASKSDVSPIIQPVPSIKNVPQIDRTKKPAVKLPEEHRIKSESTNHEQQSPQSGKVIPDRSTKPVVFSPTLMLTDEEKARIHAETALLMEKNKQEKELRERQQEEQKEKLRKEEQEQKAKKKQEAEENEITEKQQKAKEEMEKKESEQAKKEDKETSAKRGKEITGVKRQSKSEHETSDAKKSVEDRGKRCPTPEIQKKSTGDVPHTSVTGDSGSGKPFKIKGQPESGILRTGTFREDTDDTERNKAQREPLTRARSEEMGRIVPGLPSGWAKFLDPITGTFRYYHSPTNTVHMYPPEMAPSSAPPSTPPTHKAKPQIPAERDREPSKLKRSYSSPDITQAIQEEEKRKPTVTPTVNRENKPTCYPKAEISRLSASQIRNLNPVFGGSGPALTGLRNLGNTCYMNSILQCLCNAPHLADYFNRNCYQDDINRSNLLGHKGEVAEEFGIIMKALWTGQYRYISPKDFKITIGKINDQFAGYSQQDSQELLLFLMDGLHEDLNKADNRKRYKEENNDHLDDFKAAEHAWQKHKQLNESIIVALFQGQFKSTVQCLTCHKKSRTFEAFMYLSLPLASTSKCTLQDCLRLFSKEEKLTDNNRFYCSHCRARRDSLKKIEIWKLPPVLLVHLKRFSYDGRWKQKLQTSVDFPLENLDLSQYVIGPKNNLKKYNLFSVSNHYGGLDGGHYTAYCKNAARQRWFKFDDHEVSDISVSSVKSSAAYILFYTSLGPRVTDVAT
Description: as §1, §2, §3, §4, §5, §6, §7, §8, §9, §10, §11, §12

[1] = individual amine building block (plate NCN-5), read-out: BB %inhibition mUSP18

Chain of USP16 (Q9Y5T5 22-823): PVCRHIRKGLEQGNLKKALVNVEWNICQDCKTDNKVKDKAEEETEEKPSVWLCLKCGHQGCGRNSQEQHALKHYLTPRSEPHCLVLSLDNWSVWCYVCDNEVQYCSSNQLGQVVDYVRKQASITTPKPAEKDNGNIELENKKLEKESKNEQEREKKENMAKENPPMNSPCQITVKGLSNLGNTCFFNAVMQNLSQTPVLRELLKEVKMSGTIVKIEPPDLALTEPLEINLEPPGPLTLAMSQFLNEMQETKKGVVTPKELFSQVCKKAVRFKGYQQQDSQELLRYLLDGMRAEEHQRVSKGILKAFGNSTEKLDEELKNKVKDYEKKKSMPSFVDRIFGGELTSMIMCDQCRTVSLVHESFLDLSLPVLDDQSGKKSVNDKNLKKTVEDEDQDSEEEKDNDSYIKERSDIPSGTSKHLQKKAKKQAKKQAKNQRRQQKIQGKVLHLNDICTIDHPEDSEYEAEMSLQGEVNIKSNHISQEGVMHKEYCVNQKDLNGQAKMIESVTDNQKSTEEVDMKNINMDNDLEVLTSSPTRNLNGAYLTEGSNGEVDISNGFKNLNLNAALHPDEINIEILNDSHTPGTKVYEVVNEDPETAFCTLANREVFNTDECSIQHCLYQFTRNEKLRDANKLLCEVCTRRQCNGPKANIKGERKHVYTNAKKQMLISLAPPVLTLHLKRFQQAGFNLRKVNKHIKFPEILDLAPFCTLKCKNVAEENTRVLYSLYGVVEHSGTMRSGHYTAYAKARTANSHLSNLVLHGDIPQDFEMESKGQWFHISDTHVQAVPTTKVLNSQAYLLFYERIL

Row | SMILES | inhibition at 1.25 µM (mUSP18; crude in-plate synthesized compound, 1.25 µM assuming full conversion, read-out: %inhibition mUSP18) [%] | inhibition at 1.25 µM (mUSP18; [1]) [%] | BB %inhibition USP16 (USP16) [%] | inhibition at 1.25 µM (SENP1) [%] | inhibition at 1.25 µM (UCHL3) [%] | BB %inhibition USP8 (USP8) [%]
1 | Cc1cc(C(=O)N[C@H]2C[C@@H]3CN(C#N)C[C@@H]3C2)ccc1Br [BB07CA28] | 95 |  |  |  |  | 
2 | N#CN1CC[C@H](C(=O)Nc2nc3c(s2)CNCC3)C1 [BB10] |  | 0.154 | -2.4 | -5.4 | -5.1 | 0.105
3 | N#CN1C[C@@H]2C[C@H]1CN2 [BB12] |  | -0.7 | -5.0 | -9.2 | -4.6 | -2.5
4 | N#CN1C[C@H](N)[C@@H](O)C1 [BB13] |  | -0.9 | 4.4 | 10.1 | 8 | 0.0
5 | N#CN1CCC2(CCNC2)C1 (stereo not drawn) [BB14] |  | -1 | 5.9 | 8.7 | 8.6 | 7.8
6 | N#CN1CCC(n2cc(N)cn2)CC1 [BB16] |  | -4.3 | -0.846 | 4 | 2.3 | -3.5

Further lines, results first:

Row | inhibition at 1.25 µM (mUSP18; crude in-plate synthesized compound, 1.25 µM assuming full conversion, read-out: %inhibition mUSP18) [%] | inhibition at 1.25 µM (mUSP18; [1]) [%] | BB %inhibition USP16 (USP16) [%] | inhibition at 1.25 µM (SENP1) [%] | inhibition at 1.25 µM (UCHL3) [%] | BB %inhibition USP8 (USP8) [%] | SMILES
7 |  | -3.9 | -1.2 | -11.7 | -7.4 | -1.7 | N#CN1C[C@H]2C[C@H](N)C[C@H]2C1 [BB7]
8 |  | -1.5 | -0.5 | 0.5 | -2.2 | 1.5 | N#CN1CCC[C@H](N)C1 [BB8]
9 |  | 2 | -1.3 | -5 | -2.3 | 20.0 | N#CN1CC[C@@H](NC(=O)c2ccc(CN)cc2)C1 [BB9]
10 |  | -3.8 | -4.8 | -12.3 | -5.7 | -2.4 | N#CN1CC[C@H](CN)C1 [BB11]
11 |  | -5.8 | -1.1 | 0.022 | 1.4 | 2.7 | N#CN1C[C@@H](F)[C@@H](N)C1 [BB15]
